A short description of series [1]: % uncharged amine at pH 10, calculated using Henderson-Hasselbalch equation. In kind it is physicochemical. Conditions: for % uncharged at pH 10: calculated using Henderson-Hasselbalch equation; for uncharged/charged ratio of the amine at the pH of the feed solution: pH 10 feed. As for the experimental part: Assuming that only the uncharged amine can pass through the membrane, the (theoretical) extractable amount can be calculated using the % uncharged amine at pH 10 (Table 1). For MPPA (596 mg in feed solution) and MBA (484 mg in the feed solution) this corresponds to 113 mg and 358 mg theoretical extractable amine, respectively. After 7 h, 15% of this amount was extracted for MPPA, while only 3% of this amount was extracted for MBA.

The nature of series [2]: membrane contactor extraction of MPPA/IPA mixture from pH 10 feed into pH 3 sodium acetate collection solution (Example 2). In kind it is physicochemical. Conditions: pH 3 collection, 30° C., 20 l/h, 300 to 500 mbar. As for the experimental part:
A mixture of isopropyl amine (IPA) and 1-methyl-3-phenylpropylamine (MPPA) in a pH 10 aqueous buffer (feed solution) was applied to a first compartment of a membrane contactor module, with the second compartment comprising a sodium acetate buffer (pH 3) (collection solution). The membrane separation was performed at a flow rate of 20 l/h, temperature of 30° C. and transmembrane pressure of 300 to 500 mbar. Feed and collection solutions were continuously recycled in the membrane contactor module. The membrane used was a phenyl phosphonic acid functionalized ceramic membrane (as in Example 1), wherein both the external surface as the internal surface of the pores was linked to the organic moiety. The amine concentration in the extracting sodium acetate solution was followed up over time (FIG. 5).

A short description of series [3]: membrane contactor extraction of transamination reaction mixture in organic solvent into pH 3 sodium acetate buffer (Example 3). In kind it is physicochemical. The following applies: organic solvent feed, pH 3 sodium acetate extracting solution. As to the method:
An enzymatically catalysed transamination reaction is performed in an organic solvent, using benzyl acetone (BA) and isopropyl amine (IPA) as respectively substrate ketone and substrate amine. […] The resulting products are acetone (as co-product ketone) and (S-)1-methyl-3-phenylpropylamine (S-MPPA—a chiral amine). This reaction is prone to product inhibition by MPPA.
The reaction mixture is passed through a membrane contactor module, using an acidic sodium acetate buffer (pH 3) as extracting solution.

For series [4] the following is noted: cited from earlier work.
The conditions of series [5]: octanol/water; cited from earlier work.
A short description of series [6]: membrane contactor extraction of MPPA/MBA mixture from pH 10 feed into pH 3 sodium acetate collection solution (Example 1). In kind it is physicochemical. Conditions: for time of membrane extraction after which amine was detected in the acidic extracting solution: MPPA/MBA mixture, pH 10 feed, pH 3 collection, 30° C., 20 l/h, 300-500 mbar; for % of theoretical extractable amount extracted: after 7 h; for theoretical extractable amine: from % uncharged at pH 10, 596 mg MPPA and 484 mg MBA in feed. As for the experimental part: A mixture of MPPA and MBA in a pH 10 aqueous buffer (feed solution) was applied to a first compartment of a membrane contactor module, with the second compartment comprising a sodium acetate buffer (pH 3) (collection solution). The membrane separation was performed at a flow rate of 20 l/h, a temperature of 30° C. and a transmembrane pressure of 300-500 mbar. Feed and collection solutions were continuously recycled in the membrane contactor module. The membrane used was a phenyl phosphonic acid functionalized ceramic membrane, wherein both the external surface as the internal surface of the pores was linked to the organic moiety. […] The amine concentration in the extracting sodium acetate solution was followed up over time (FIG. 4).

The conditions of series [7]: cited from earlier work. The source holds these as a separate data set.

Structures are written as SMILES. Several values for one entry are separate records, joined by “and”; a condition that tells them apart may be missing. Equal entries are not always repeated.

As to `CC(C)N` [IPA, isopropyl amine], the “% uncharged at pH 10” value in series [1] was 16%. In addition, the “time of membrane extraction after which amine was detected in the acidic extracting solution” value (“time of membrane extraction” for short) in series [2] is given as “about 7 h”. The membrane passage behaviour result in series [3] is listed as “mainly remains in the feed solution”. For the same compound, the pKa in series [4] was 10.73. Moreover, in series [5], the LogP is given as 0.391.
As to `CNCc1ccccc1` [MBA, methylbenzylamine], in series [1], the “% uncharged at pH 10” value was 74% and the “uncharged/charged ratio of the amine at the pH of the feed solution” value was “≈ 3”. Besides, in series [6], the “time of membrane extraction” value came to 3.5 h, the “% of theoretical extractable amount extracted” value is on record as 3% and the theoretical extractable amine was found to be 358 mg. For the same compound, the pKa in series [4] is recorded as 9.54. For the same compound, the log partition coefficient (LogP) in series [5] is given as 1.7.
For `CC(=O)CCc1ccccc1` [BA, benzyl acetone], the “solubility in aqueous liquids” value in series [7] was 10 mM and 1.48 g/1.
Take `CC(N)CCc1ccccc1` (stereo not shown) [MPPA, 1-methyl-3-phenylpropylamine]: in series [1], the “% uncharged at pH 10” value is listed as 19% and the “uncharged/charged ratio of the amine at the pH of the feed solution” value was “≈ 0.25”. Further, the “time of membrane extraction” value in series [2] is listed as “less than 1 h”. In series [3], the membrane passage behaviour entry is “efficiently passes the membrane”. In series [6], the “time of membrane extraction” value is “less than 1 h”, the “% of theoretical extractable amount extracted” value is listed as 15% and the theoretical extractable amine is listed as 113 mg. Besides, the pKa in series [4] is 10.63. Also, in series [5], the LogP is on record as 2.264.

Source of the values: patent US10730022B2, “Process for the separation of organic compounds” (VITO NV, priority 2015, dated 2020).
